Publication PMC12040169 (PLOS Biology, 2025)

Experiment: in vitro
Conditions: human, hela cells, % viability

Row | SMILES | viability at 28.5 h, 10 µM [%]
1 | Cn1ccc(N2CCCC(NC(=O)c3scnc3C(C)(C)C)C2=O)n1 (stereo not drawn) [CBK305453] | 94.9
2 | CCn1nccc1N1CCCC(NC(=O)CCc2ccccc2Cl)C1=O (stereo not drawn) [CBK305455] | 113
3 | CC(C)Cn1cnc(S(=O)(=O)N2CCC(OCc3ccncc3)C2)c1 (stereo not drawn) [CBK305456] | 105
4 | Cc1nc(C)c(CNC(=O)NC2CCCN(c3ccn(C)n3)C2=O)s1 (stereo not drawn) [CBK305457] | 86
5 | CSc1nnc(CCCNC(=O)c2cccc(C#N)c2)n1C1CCCC1 [CBK305459] | 80.9
6 | CN(C)c1ncc(CNc2nc(O)c3c(n2)CCCC3)cn1 [CBK305460] | 89.3
7 | CN1CCC(CNS(=O)(=O)c2cccc3c2OCC3)CC1=O (stereo not drawn) [CBK305465] | 114
8 | Cn1nc(C(C)(C)C)c2cc(C(=O)N3CCn4nccc43)cnc21 [CBK305466] | 93.3
9 | CC1(C)CC(NC(=O)c2cc3cccnc3[nH]2)CCO1 (stereo not drawn) [CBK305467] | 82.3
10 | CC(=O)Nc1cccc(-n2nnnc2SCc2cnn(C)c2)c1 [CBK305471] | 101
11 | CCOC(=O)C(NC(=O)C1CCC(=O)N1)c1cccc(C)c1C (stereo not drawn) [CBK305472] | 93.8
12 | O=C(NC1CCN(CC(F)(F)F)CC1)c1cnc(-c2ccccc2)s1 [CBK305474] | 98.4
13 | Cc1csc(C2CN(Cc3cn(C)c(=O)n(C)c3=O)CCO2)n1 (stereo not drawn) [CBK305475] | 86.6
14 | COCCc1ccccc1NC1CCN(c2nccs2)CC1 [CBK305476] | 91.2
15 | COCCn1c(SC(C)C(=O)NC2CC2)nc2ccc(Br)cc2c1=O (stereo not drawn) [CBK305481] | 108
16 | Cc1ccc(CS(=O)(=O)N(C)C2CCN(C)C(C)C2)c(F)c1 (stereo not drawn) [CBK305484] | 90.4
17 | CCOc1cc(NC2CCN(C(=O)NCC(F)F)CC2)ncn1 [CBK305485] | 85.6
18 | Cc1[nH]c2ccc(CNC(=O)NC3CCCc4cn[nH]c43)cc2c1C (stereo not drawn) [CBK305488] | 89.8

Row | SMILES | viability at 28.5 h, 10 µM [%]
19 | Cc1nnc(CS(=O)(=O)Cc2csc(C(C)(C)C)n2)n1C1CC1 [CBK305489] | 109
20 | Cc1c(C(=O)N2CCCCC2C(N)=O)nnn1-c1cccc(Cl)c1 (stereo not drawn) [CBK305490] | 106
21 | Cc1cc(O)nc(C(C)N2CCCN(CC(F)(F)F)CC2)n1 (stereo not drawn) [CBK305491] | 88.6
22 | O=C(NCC1(CCO)CCOC1)c1c[nH]nc1-c1cc2ccccc2o1 (stereo not drawn) [CBK305492] | 103
23 | CC(NC(=O)CCc1cnn(C)c1)c1nc(-c2ccncc2)cs1 (stereo not drawn) [CBK305496] | 91.4
24 | Cc1nc(CCNc2ccc(-c3nc(C)c(C)c(=O)[nH]3)cn2)cs1 [CBK305497] | 107
25 | CCOC(=O)C(Cc1ccccc1)NC(=O)c1cn[nH]c1C (stereo not drawn) [CBK305499] | 99.7
26 | COc1ccc(C)cc1-n1ccc(C(=O)NC2CCSCC2)n1 [CBK305502] | 94.6
27 | CN(CCNC(=O)Nc1ccc2c(c1)oc(=O)n2C)C1CCCC1 [CBK305503] | 95.1
28 | CCOc1cc(NC2CCN(C(=O)C3CCCCC3(C)C)CC2)ncn1 (stereo not drawn) [CBK305505] | 105
29 | CCOc1cc(NC2CCN(C(=O)CC3CCCCC3)CC2)ncn1 [CBK305506] | 104
30 | Cc1nc(C)c(S(=O)(=O)Nc2ccccc2-c2nnnn2C(C)C)s1 [CBK305508] | 96.3
31 | CC(C)n1nnnc1-c1ccccc1NS(=O)(=O)C1CC1 [CBK305509] | 97.7
32 | Cc1cc(C)n(CC(=O)NCC(c2c(F)cccc2F)N(C)C)n1 (stereo not drawn) [CBK305510] | 96.7
33 | CCSc1nnnn1-c1cccc(NC(C)=O)c1 [CBK305511] | 94.4
34 | Cc1cc(C(=O)CSc2ccc(Cl)nn2)c(C)n1C1CC1 [CBK305512] | 99.2
35 | O=S1(=O)CCC(c2nnc(C3(c4ccc(Br)cc4)CCOCC3)o2)C1 (stereo not drawn) [CBK305513] | 115
36 | Cc1c(C(=O)N(C(C)C)C2CC2)nnn1-c1ccc2ncccc2c1 [CBK305518] | 92.5
